In this experiment the target is Tyrosyl-DNA phosphodiesterase 2 (Homo sapiens) (UniProt O95551). The experiment in a line: potency against TDP2 phosphodiesterase activity – biochemical, epi absorbance, IC50, late-stage follow-up (AID 1083212). The note with it: recombinant TDP2, T5PNP hydrolysis, p-nitrophenol absorbance 415 nm.

Molecules are shown by their SMILES. Calls of active or inactive are those of the source.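 The calls were made as follows: active = IC50 of 10 µM or lower; inactive = IC50 above 10 µM.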

Chain of Tyrosyl-DNA phosphodiesterase 2 (Homo sapiens) (O95551 whole entry, looked up): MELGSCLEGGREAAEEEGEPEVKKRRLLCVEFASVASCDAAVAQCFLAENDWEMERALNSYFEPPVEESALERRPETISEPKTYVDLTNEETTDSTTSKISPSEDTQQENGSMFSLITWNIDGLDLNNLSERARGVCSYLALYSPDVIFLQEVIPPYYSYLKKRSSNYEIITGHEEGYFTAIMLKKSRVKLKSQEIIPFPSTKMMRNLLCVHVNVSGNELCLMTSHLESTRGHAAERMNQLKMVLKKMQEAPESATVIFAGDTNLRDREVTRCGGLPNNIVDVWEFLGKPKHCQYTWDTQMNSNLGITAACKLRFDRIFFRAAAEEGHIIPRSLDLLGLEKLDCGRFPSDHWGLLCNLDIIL

On to `COc1ccc(CNC(=S)Nc2ccc(S(N)(=O)=O)cc2)cc1`, for which the IC50 was > 128 µM (inactive).
For `Cc1ccc(NC2=C/C(=N\S(=O)(=O)c3cccs3)c3ccccc3C2=O)cc1` the value was > 128 µM (inactive); for `O=C(O)c1ccc(NC2=C/C(=N/S(=O)(=O)c3cccs3)c3ccccc3C2=O)cc1`, 1.32 µM.
